Reference: patent US20260193244A1 (Protego Biopharma, Inc., priority 2022, published 2026)
Where a name gives a salt, the structure may show the parent alone.

Each compound was assayed on IRE1-XBP1s (HEK293 T-REx cells stably expressing the XBP1-RLuc splicing reporter) (assay: IRE1-XBP1s activation Assay (XBP1-RLuc splicing reporter, luminescence relative to thapsigargin, with or without IRE1 inhibitor 4μ8C)). Conditions: 18 h, compound 10 μM, luminescence as percentage signal relative to thapsigargin (Tg) (500 nM, 18 h).
Type: cell-based
Protocol: IRE1-XBP1s activation Assay: HEK293 T-REx cells stably expressing the XBP1-RLuc splicing reporter were treated with an IRE1-XBP1s activator provided herein (10 μM) in the presence or absence of the IRE1 active site inhibitor 4μ8C (32 μM) for 18 h. Luminescence was shown as the percentage signal relative to thapsigargin (Tg) (500 nM, 18 h).

| SMILES | activation at 10 µM [%] |
| --- | --- |
| Cc1ccc(OCCN(C)C(=O)Cn2cc(NC(=O)[C@H]3CC[C@@H](Oc4ccccc4)CC3)cn2)cc1 [Compound 1, (cis)-N-(1-(2-(methyl(2-(p-tolyloxy)ethyl)amino)-2-oxoethyl)-1H-pyrazol-4-yl)-4-phenoxycyclohexanecarboxamide] | < 30 |
| Cc1ccc(OCCN(C)C(=O)Cn2cc(NC(=O)c3cccc(Oc4ccccc4)c3)cn2)cc1 [Compound 2] | < 30 |
| Cc1ccc(OCCN(C)C(=O)Cn2cc(NC(=O)c3ccc(Oc4ccccc4)cc3)cn2)cc1 [Compound 3] | < 30 |
| O=C(CCOc1ccccc1)Nc1cnn(CC(=O)N2CCCC(Oc3ccc(C(F)(F)F)cc3)C2)c1 (stereo not shown) [Compound 4, N-(1-(2-oxo-2-(3-(4-(trifluoromethyl)phenoxy)piperidin-1-yl)ethyl)-1H-pyrazol-4-yl)-3-phenoxypropanamide hydrochloride] | 30 to 50 |
| Cc1ccc(OCCN(C)C(=O)Cn2cc(NC(=O)[C@H]3CC[C@H](Oc4ccccc4)CC3)cn2)cc1 [Compound 5] | < 30 |
| Cc1ccc(OCCN(C)C(=O)Cn2cc(NC(=O)[C@H]3C[C@@H](c4ccccc4)C3)cn2)cc1 [Compound 6] | ≥ 50 |
| Cc1ccc(OCCN(C)C(=O)Cn2cc(NC(=O)[C@@H]3CC[C@@H](Oc4ccccc4)C3)cn2)cc1 [Compound 8, (1R,3R)—N-(1-(2-(methyl(2-(p-tolyloxy)ethyl)amino)-2-oxoethyl)-1H-pyrazol-4-yl)-3-phenoxycyclopentanecarboxamide hydrochloride] | < 30 |
| Cc1ccc(OC2CCN(C(=O)Cn3cc(NC(=O)CCOc4ccccc4)cn3)CC2)cc1 [Compound 9] | < 30 |
| Cc1ccc(OC2CCCN(C(=O)Cn3cc(NC(=O)CCOc4ccccc4)cn3)C2)cc1 (stereo not shown) [Compound 11] | 30 to 50 |
| Cc1ccc(OCCN(C)C(=O)Cn2cc(NC(=O)[C@@H]3CCC[C@H](Oc4ccccc4)C3)cn2)cc1 [Compound 12] | < 30 |
| Cc1ccc(OCCN(C)C(=O)Cn2cc(NC(=O)[C@@H]3CCC[C@@H](Oc4ccccc4)C3)cn2)cc1 [Compound 13] | < 30 |
| Cc1ccc(OCCN(C)C(=O)Cn2cc(N(C)C(=O)C3CN(Cc4ccccc4)CCO3)cn2)cc1 (stereo not shown) [Compound 14] | < 30 |
| Cc1ccc(OCCN(C)C(=O)Cn2cc(N(C)C(=O)[C@@H]3CCCN(C(=O)c4ccccc4)C3)cn2)cc1 [Compound 15] | < 30 |
| Cc1ccc(OCCN(C)C(=O)Cn2cc(N(C)C(=O)[C@@H]3CCC(=O)N(Cc4ccccc4)C3)cn2)cc1 [Compound 16] | < 30 |
| Cc1ccc(OCCN(C)C(=O)Cn2cc(N(C)C(=O)C3CCC(Oc4ccccc4)CC3)cn2)cc1 (stereo not shown) [Compound 17] | < 30 |
| Cc1ccc(C2CCN(C(=O)Cn3cc(NC(=O)CCOc4ccccc4)cn3)C2)cc1 (stereo not shown) [Compound 18] | < 30 |
| Cc1ccc(OCCN(C)C(=O)Cn2cc(N(C)C(=O)[C@@H]3CCCC[C@@H]3c3ccccc3)cn2)cc1 [Compound 19] | < 30 |
| Cc1ccc(N2CCCN(C(=O)Cn3cc(NC(=O)CCOc4ccccc4)cn3)CC2)cc1 [Compound 23] | < 30 |
| Cc1ccc(Oc2ccc(N(C)C(=O)Cn3cc(NC(=O)CCOc4ccccc4Cl)cn3)cc2)cc1 [Compound 24] | 30 to 50 |
| COc1ccccc1OCCC(=O)Nc1cnn(CC(=O)N(C)c2ccc(Oc3ccc(C)cc3)cc2)c1 [Compound 25] | 30 to 50 |

| SMILES | activation at 10 µM [%] |
| --- | --- |
| Cc1ccc(Oc2ccc(N(C)C(=O)Cn3cc(NC(=O)CCOc4cccc(C)c4)cn3)cc2)cc1 [Compound 26] | < 30 |
| Cc1ccc(OCCC(=O)Nc2cnn(CC(=O)N(C)c3ccc(Oc4ccc(C)cc4)cc3)c2)cc1 [Compound 27] | < 30 |
| Cc1ccc(C2CCCN(C(=O)Cn3cc(NC(=O)CCOc4ccccc4)cn3)C2)cc1 (stereo not shown) [Compound 28] | < 30 |
| O=C(CCOc1ccccc1)Nc1cnn(CC(=O)Nc2ccc(-n3cncn3)cc2)c1 [Compound 30] | < 30 |
| O=C(CCOc1ccccc1)Nc1cnn(CC(=O)Nc2ccc(C3CCCCC3)cc2)c1 [Compound 31] | < 30 |
| Cc1ccc(Oc2ccc(N(C)C(=O)Cn3cc(NC(=O)CCOc4ccccc4C)cn3)cc2)cc1 [Compound 32, N-(1-(2-(methyl(4-(p-tolyloxy)phenyl)amino)-2-oxoethyl)-1H-pyrazol-4-yl)-3-(o-tolyloxy)propanamide hydrochloride] | < 30 |
| O=C(CCOc1ccccc1)Nc1cnn(CC(=O)N2CCCN(c3ccc(F)cn3)CC2)c1 [Compound 33] | < 30 |
| Cc1ccccc1OCCC(=O)Nc1cnn(CC(=O)N(C)c2ccc(Oc3ccccc3)cc2)c1 [Compound 34] | < 30 |
| Cc1cccc(OCCC(=O)Nc2cnn(CC(=O)N(C)c3ccc(Oc4ccccc4)cc3)c2)c1 [Compound 35] | < 30 |
| Cc1ccc(OC2CCCN(C(=O)Cn3cc(NC(=O)CCOc4ccccc4C)cn3)C2)cc1 (stereo not shown) [Compound 36] | ≥ 50 |
| Cc1ccc(OCCC(=O)Nc2cnn(CC(=O)N3CCCC(Oc4ccc(C)cc4)C3)c2)cc1 (stereo not shown) [Compound 37] | 30 to 50 |
| Cc1ccc(OC2CCCN(C(=O)Cn3cc(NC(=O)CCOc4ccc(Cl)cc4)cn3)C2)cc1 (stereo not shown) [Compound 38] | 30 to 50 |
| Cc1ccc(OC2CCCN(C(=O)Cn3cc(NC(=O)CCOc4ccccc4Cl)cn3)C2)cc1 (stereo not shown) [Compound 39] | ≥ 50 |
| COc1ccccc1OCCC(=O)Nc1cnn(CC(=O)N2CCCC(Oc3ccc(C)cc3)C2)c1 (stereo not shown) [Compound 40] | 30 to 50 |
| COc1ccc(OCCC(=O)Nc2cnn(CC(=O)N3CCCC(Oc4ccc(C)cc4)C3)c2)cc1 (stereo not shown) [Compound 41, 3-(4-methoxyphenoxy)-N-(1-(2-oxo-2-(3-(p-tolyloxy)piperidin-1-yl)ethyl)-1H-pyrazol-4-yl)propanamide hydrochloride] | < 30 |
| CN(C(=O)Cn1cc(NC(=O)CCOc2ccccc2)cn1)c1ccc(Oc2ccc(C(F)(F)F)cc2)cc1 [Compound 42, N-(1-(2-(methyl(4-(4-(trifluoromethyl)phenoxy)phenyl)amino)-2-oxoethyl)-1H-pyrazol-4-yl)-3-phenoxypropanamide hydrochloride] | < 30 |
| Cc1cccc(OCCC(=O)Nc2cnn(CC(=O)N(C)c3ccccc3Oc3ccccc3)c2)c1 [Compound 43] | < 30 |
| Cc1ccccc1OCCC(=O)Nc1cnn(CC(=O)N(C)c2ccccc2Oc2ccccc2)c1 [Compound 44] | < 30 |
| Cc1ccc(C2CN(C(=O)Cn3cc(NC(=O)CCOc4ccccc4)cn3)CCN2C)cc1 (stereo not shown) [Compound 45, N-(1-(2-(4-methyl-3-(p-tolyl)piperazin-1-yl)-2-oxoethyl)-1H-pyrazol-4-yl)-3-phenoxypropanamide] | < 30 |
| COc1ccc(OCCC(=O)Nc2cnn(CC(=O)N3CCCCC(Oc4ccccc4)C3)c2)cc1 (stereo not shown) [Compound 47] | < 30 |

| SMILES | activation at 10 µM [%] |
| --- | --- |
| Cc1ccc(OCCC(=O)Nc2cnn(CC(=O)N3CCCCC(Oc4ccccc4)C3)c2)cc1 (stereo not shown) [Compound 48] | < 30 |
| Cc1ccccc1OCCC(=O)Nc1cnn(CC(=O)N2CCCCC(Oc3ccccc3)C2)c1 (stereo not shown) [Compound 49] | < 30 |
| O=C(CCOc1ccc(Cl)cc1)Nc1cnn(CC(=O)N2CCCCC(Oc3ccccc3)C2)c1 (stereo not shown) [Compound 50] | < 30 |
| COc1ccccc1OCCC(=O)Nc1cnn(CC(=O)N2CCCCC(Oc3ccccc3)C2)c1 (stereo not shown) [Compound 51] | < 30 |
| O=C(CCOc1ccccc1)Nc1cnn(CC(=O)N2CCCN(Cc3ccncc3)CC2)c1 [Compound 52, N-(1-(2-oxo-2-(4-(pyridin-4-ylmethyl)-1,4-diazepan-1-yl)ethyl)-1H-pyrazol-4-yl)-3-phenoxypropanamide] | < 30 |
| Cc1ccccc1OCCC(=O)Nc1cnn(CC(=O)N(C)c2ccc(Oc3ccc(C(F)(F)F)cc3)cc2)c1 [Compound 53] | < 30 |
| CN(C(=O)Cn1cc(NC(=O)CCOc2ccccc2)cn1)c1ccc(Oc2ccc(C(F)(F)F)cc2)c(F)c1 [Compound 54] | < 30 |
| Cc1ccc(Oc2c(F)cc(N(C)C(=O)Cn3cc(NC(=O)CCOc4ccccc4)cn3)cc2F)cc1 [Compound 55] | < 30 |
| Cc1ccc(Oc2ccccc2N(C)C(=O)Cn2cc(NC(=O)CCOc3ccccc3)cn2)cc1 [Compound 57] | < 30 |
| Cc1ccc(C(F)(F)c2ccc(N(C)C(=O)Cn3cc(NC(=O)CCOc4ccccc4)cn3)cc2)cc1 [Compound 58] | < 30 |
| Cc1ccc(C2=CC(C)(C)Oc3cc(N(C)C(=O)Cn4cc(NC(=O)CCOc5ccccc5)cn4)ccc32)cc1 [Compound 59, N-(1-(2-((2,2-dimethyl-4-(p-tolyl)-2H-chromen-7-yl)(methyl)amino)-2-oxoethyl)-1H-pyrazol-4-yl)-3-phenoxypropanamide] | < 30 |
| Cc1ccc(OCCN(C)C(=O)Cn2cc(NC(=O)C3COc4ccccc4C3)cn2)cc1 (stereo not shown) [Compound 60] | < 30 |
| Cc1ccc(OCCN(C)C(=O)Cn2cc(NC(=O)C3CCCN(c4ccccc4)C3)cn2)cc1 (stereo not shown) [Compound 61] | < 30 |
| COc1ccc2c(c1)CC(C(=O)Nc1cnn(CC(=O)N(C)CCOc3ccc(C)cc3)c1)CO2 (stereo not shown) [Compound 63] | < 30 |
| Cc1ccc(OCCN(C)C(=O)Cn2cc(NC(=O)C3CCN(c4ccccc4)C3)cn2)cc1 (stereo not shown) [Compound 64] | < 30 |
| Cc1ccc(OC2COCCN(C(=O)Cn3cc(NC(=O)CCOc4ccccc4)cn3)C2)cc1 (stereo not shown) [Compound 65] | 30 to 50 |
| Cc1ccc(OCCN(C)C(=O)Cn2cc(NC(=O)C3CNc4ccccc4C3)cn2)cc1 (stereo not shown) [Compound 66] | < 30 |
| Cc1ccc(OCCN(C)C(=O)Cn2cc(NC(=O)C3COc4ccccc43)cn2)cc1 (stereo not shown) [Compound 67] | < 30 |
